Reference: PubChem BioAssay AID651703 (Broad Institute, 2012)

The compounds below were run against Transforming acidic coiled-coil-containing protein 3 (Homo sapiens) (UniProt Q9Y6A5) (assay: inhibition of ARNT PAS-B/TACC3 complex formation – biochemical, AlphaScreen, cherry-picked samples, confirmation (AID 651703;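 note: TACC3 partner is the GST-tagged E629A mutant dimer; hits lower the signal meaning they disrupt ARNT binding to TACC3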)). Conditions: AlphaScreen His-ARNT PAS-B / GST-TACC3 binding, luminescence.
`CC(=O)OC[C@H]1O[C@@H](Sc2cccc3cccnc23)[C@H](OC(C)=O)[C@@H](OC(C)=O)[C@H]1OC(C)=O` showed an AC50 of 11.5 µM. Work on `Cc1ccsc1C(=O)OCC(=O)Nc1nnc(-c2ccccc2)o1` yielded an AC50 of 14.4 µM. Compound `C[C@H]1CN([C@@H](C)CO)C(=O)c2cccc(NC(=O)Nc3cccc4ccccc34)c2O[C@@H]1CN(C)S(=O)(=O)c1ccc(Cl)cc1` has an AC50 of 51.9 µM. `O=C(CSc1ccc(-c2ccccn2)nn1)NCc1ccccc1` was tested, and the AC50 was 4.18 µM. `CC1OC(CC(=O)O)CC2=C1C(=O)c1c(O)cccc1C2=O` (stereo not drawn) was tested, and the AC50 was 46.9 µM. Work on `CCN(CC)S(=O)(=O)c1cccc(C(=O)N/N=C/c2ccc(O)c(O)c2O)c1` yielded an AC50 of 4.5 µM. With `c1ccc(-c2nnc(-c3ccccn3)nc2NCc2ccccn2)cc1` the AC50 was < 0.5 µM. With `CCC1CCCCN1S(=O)(=O)c1ccc(NC(=O)CSc2ncccc2C(=O)O)cc1` (stereo not drawn) the AC50 was 15.4 µM. For `Cc1cc(=O)[nH]c(-n2[nH]c3c(c2=O)CCCC3)n1`, the AC50 was 39.3 µM. For `O=C(NCCCn1ccnc1)C(F)(F)C(F)(F)C(=O)NCCCn1ccnc1`, the AC50 was 38.5 µM. `Oc1c(CN2CCN(c3ccccc3)CC2)cc(Br)c2cccnc12` showed an AC50 of 1.07 µM. `O=C(Nc1nc(-c2ccccn2)cs1)c1cc(S(=O)(=O)N2CCOCC2)ccc1F` gave an AC50 of 4.43 µM. In the case of `CCOc1ccc(NC(=O)CC(NCc2ccccn2)C(=O)O)cc1` (stereo not drawn), the AC50 is reported as < 0.5 µM. `c1ccc(-c2cnnc(-c3ccccn3)n2)cc1` gave an AC50 of 2.57 µM. `Oc1ccc(C2=Nn3c(nnc3-c3ccco3)SC2)cc1O` showed an AC50 of 6.22 µM. `COc1cc(CNCc2ccccn2)ccc1OCC(=O)NC(C)(C)C` showed an AC50 of 26.4 µM. In the case of `Cc1nc2ccccc2n1CC(=O)c1ccc(O)c(O)c1`, the AC50 is reported as 49.8 µM. `CCCCCc1cc(=O)oc2c(C(CCN3CCCC3)c3ccc(N(C)C)cc3)c(OC)cc(OC)c12` (stereo not drawn) gave an AC50 of 6.86 µM. Work on `O=S(=O)(N[C@@H]1CC[C@H](CCn2cc(-c3ccccn3)nn2)O[C@@H]1CO)c1cccc(F)c1` yielded an AC50 of 29.1 µM. Compound `CCOC(=O)CSc1cccc2cccnc12` has an AC50 of 4.59 µM. In the case of `Cc1ccn2c(Nc3ccccc3C)c(-c3ccccn3)nc2c1`, the AC50 is reported as 3.69 µM. For `CCCCC(=O)NC(c1ccc(N(C)C)cc1)c1ccc2cccnc2c1O` (stereo not drawn), the AC50 was 2.63 µM. With `Cc1ccc(S(=O)(=O)CCc2nnc(NC(=O)c3ccccn3)s2)cc1` the AC50 was 3.01 µM. In the case of `C/C(=N\NC(=O)Cc1ccc(Cl)cc1)c1ccccn1`, the AC50 is reported as 10.2 µM. Compound `COc1ccc2nc(-c3ccccn3)[nH]c2c1` has an AC50 of 29 µM. In the case of `CN(Cc1ccccc1)C(=O)c1[nH]cnc1C(=O)Nc1nccs1`, the AC50 is reported as 22.5 µM. For `C[C@H](CO)N1C[C@H](C)[C@@H](CN(C)S(=O)(=O)c2ccc(Cl)cc2)Oc2c(NC(=O)Nc3cccc4ccccc34)cccc2C1=O`, the AC50 was 62 µM. With `Oc1ccc(CN2CCC(Cc3ccccc3)CC2)c2cccnc12` the AC50 was 2.48 µM. For `O=C(CNS(=O)(=O)c1ccc([N+](=O)[O-])cc1)N/N=C/c1ccc(O)cc1O`, the AC50 was 19.2 µM. With `C=C1c2cccc(O)c2C(=O)C2C(=O)[C@]3(O)C(=O)C(C(N)=O)C(=O)[C@@H](N(C)C)[C@@H]3[C@@H](O)[C@H]12` (stereo partly drawn) the AC50 was 21.2 µM. With `C[C@@H]1CN([C@H](C)CO)C(=O)c2cc(NC(=O)Nc3ccc(C(F)(F)F)cc3)ccc2O[C@@H](C)CCCCO[C@@H]1CN(C)Cc1ccc2c(c1)OCO2` the AC50 was 38.1 µM. Compound `COc1ccccc1Nc1cc2cc(Br)ccc2c(=O)[nH]1` has an AC50 of 16.8 µM. Compound `Oc1c(C(c2ccc(Cl)cc2)N2CCCC2)cc(Cl)c2cccnc12` (stereo not drawn) has an AC50 of 1.36 µM. Work on `c1ccc(CSc2ccc(-c3ccccn3)nn2)nc1` yielded an AC50 of 0.895 µM. For `COc1cc(NCCCCCCN)c2ncccc2c1OC`, the AC50 was 16.1 µM. With `COC(=O)c1ccc(CSc2ccc3nnc(-c4ccccn4)n3n2)o1` the AC50 was 17.4 µM. `C[C@@H](Nc1nc(-c2ccccn2)nnc1-c1ccccc1)C1CCCCC1` was tested, and the AC50 was 2.26 µM. `O=C(O)c1ncn(Cc2ccccc2)c1C(=O)O` gave an AC50 of 13.8 µM. `COc1cc(OC)cc(C(=O)Nc2nnc(-c3cccnc3)o2)c1` was tested, and the AC50 was 20.8 µM. `O=C(Nc1ccccc1C(=O)Nc1ccccc1C(=O)O)c1ccccc1` was tested, and the AC50 was 65.3 µM. Work on `Nc1nc(CN2CCN(Cc3ccccc3)CC2)nc(Nc2ccc3c(c2)OCCO3)n1` yielded an AC50 of 65.8 µM. `O=C(CSc1cccc2cccnc12)OCC(=O)c1ccccc1` was tested, and the AC50 was 37.3 µM. With `Cc1ccc(Nc2nc(-c3ccccn3)nnc2-c2ccccc2)cn1` the AC50 was < 0.5 µM. Compound `CC(C)(C)c1ccc(OCCNC(=O)c2ncn[nH]2)cc1` has an AC50 of 15.8 µM. Compound `O=C(COc1ccc(Cl)cc1)Nc1nnc(-c2ccco2)o1` has an AC50 of 19.6 µM. `O=C(O)CSc1c(O)c2ccccc2[nH]c1=O` was tested, and the AC50 was 34.5 µM. In the case of `CC(Oc1ccccc1)C(=O)Nc1nc(-c2ccccn2)cs1` (stereo not drawn), the AC50 is reported as 13.2 µM. Work on `O=S(=O)(NC1CCN(Cc2ccc(OCCO)cc2)CC1)c1cccc2cccnc12` yielded an AC50 of 15.2 µM. In the case of `COc1ccc(NC(=O)N[C@H]2CC[C@@H](CCn3cc(-c4ccccn4)nn3)O[C@@H]2CO)cc1`, the AC50 is reported as 13.3 µM. Compound `O=C(CSc1ccc(-c2ccccn2)nn1)N1CCCc2ccccc21` has an AC50 of 5.32 µM. `c1ccc(-c2n[nH]c(-c3ccccn3)n2)cc1` was tested, and the AC50 was 11.6 µM. `COCc1cc(CN2CCN(C)CC2)c(O)c2ncccc12` gave an AC50 of 1.14 µM. In the case of `c1ccc(-c2nnc(-c3ccccn3)nc2NCC2CCCCC2)cc1`, the AC50 is reported as 0.994 µM. With `Oc1ccccc1C(Nc1nccs1)c1ccc2cccnc2c1O` (stereo not drawn) the AC50 was 4.85 µM. `COCc1ccc(O)c2ncccc12` showed an AC50 of 2.22 µM. `O=S(=O)(c1cccc2cccnc12)N1CCN(Cc2ccc(OCCO)cc2)CC1` showed an AC50 of 48.2 µM. `Cc1cccc(NC(=O)CSc2cccc3cccnc23)c1C` showed an AC50 of 33.7 µM. Work on `CS(=O)(=O)c1cccc(C(=O)Nc2nnc(C3=COCCO3)o2)c1` yielded an AC50 of 45.6 µM. Work on `CC(C)(C)CCNC(=O)c1cc(-c2ccccc2)on1` yielded an AC50 of 21.5 µM. Compound `CCOC(=O)N1CCN(C(c2cccnc2)c2ccc3cccnc3c2O)CC1` (stereo not drawn) has an AC50 of 4.64 µM. `Oc1cccc(/C=N/Nc2ccc(Cl)nn2)c1O` gave an AC50 of 1.5 µM. With `Oc1cc(NCCN2CCOCC2)cc2cccnc12` the AC50 was 1.46 µM. With `COC(=O)c1ccc(NC(=O)CSc2ccc(-c3ccccn3)nn2)cc1` the AC50 was 2.57 µM. `COc1cccc(C(=O)Oc2c(CN3CCOCC3)cc(Cl)c3cccnc23)c1` showed an AC50 of 10.9 µM. In the case of `O=C(N[C@H]1CC[C@H](CCn2cc(-c3ccccn3)nn2)O[C@H]1CO)c1ccncc1`, the AC50 is reported as 14.4 µM. For `CC(=O)NC(c1ccc2ccccc2c1)c1ccc2cccnc2c1O` (stereo not drawn), the AC50 was 5.44 µM. `Cc1[nH]n(-c2ccccc2)c(=O)c1/C=N/NC(=O)c1cccc(F)c1` showed an AC50 of 9.69 µM. `Clc1cccc(CNc2nc(-c3ccccn3)nnc2-c2ccccc2)c1` showed an AC50 of 1.05 µM. `O=C(CNCc1ccccn1)N1CCc2ccccc2C1` showed an AC50 of 3.23 µM. With `CCOC(=O)c1c(OCC)[nH]c2c1cc(O)c1ccccc12` the AC50 was 56.9 µM. For `Oc1ccc(Cn2ccnc2)c2cccnc12`, the AC50 was < 0.5 µM. With `CN(Cc1ccccc1)CC(O)COc1ccc(CNCc2nccn2C)cc1` (stereo not drawn) the AC50 was 47.9 µM. For `CCN(CC)S(=O)(=O)c1ccc(NN)nc1`, the AC50 was 8.98 µM. `O=C(NC12CC3CC(CC(C3)C1)C2)c1ccc(-c2ccccc2Cl)o1` showed an AC50 of 51 µM. `O=C(c1ccccn1)N1CC[C@@H]2[C@H]1c1cc(Br)ccc1N[C@@H]2CO` gave an AC50 of 27.7 µM. `COc1cc2c(cc1O)C[C@H]1NCCc3cc4c(c-2c31)OCO4` gave an AC50 of 27.7 µM. `C[C@@H](C(=O)Nc1nc(-c2ccccn2)cs1)N1C(=O)C2CCCCC2C1=O` (stereo partly drawn) showed an AC50 of 4.28 µM. Compound `COc1ccccc1NC(=O)CSc1n[nH]c(-c2ccccn2)n1` has an AC50 of 0.821 µM. Compound `Cc1ncc(CO)c(/C=N/NC(=O)c2cc3c(s2)CCCC3)c1O` has an AC50 of 11.3 µM. In the case of `OCCN1CCN(Cc2cc(Cl)c3cccnc3c2O)CC1`, the AC50 is reported as 1.34 µM. `Cn1cccc1C(=O)Nc1nc(-c2ccccn2)cs1` gave an AC50 of 5.3 µM. With `Cc1cc(=O)[nH]c(-n2ncc(C#N)c2N)n1` the AC50 was 59.7 µM. Work on `COc1ccccc1Nc1nc(N)nc(CN(C)C2CCCCC2)n1` yielded an AC50 of 37.7 µM.
